In this series the test system is CCRIS mutagenicity, Ames/micronucleus/aberration tests. The series is described as follows: CCRIS mutagenicity studies.
[1] abbreviates: Test System: AMES SALMONELLA TYPHIMURIUM, Strain/Indicator: TA98, Metabolic Activation: NONE, Method: PREINCUBATION
Where [2] appears, read: Test System: AMES SALMONELLA TYPHIMURIUM, Strain/Indicator: TA98, Metabolic Activation: NONE, Method: STANDARD PLATE.
The mark [3] stands for this setting: Test System: AMES SALMONELLA TYPHIMURIUM, Strain/Indicator: TA100, Metabolic Activation: NONE, Method: PREINCUBATION
Where [4] appears, read: Test System: AMES SALMONELLA TYPHIMURIUM, Strain/Indicator: TA100, Metabolic Activation: NONE, Method: STANDARD PLATE.
Where [5] appears, read: Test System: AMES SALMONELLA TYPHIMURIUM, Strain/Indicator: TA1535, Metabolic Activation: NONE, Method: PREINCUBATION
Setting [6] is: Test System: AMES SALMONELLA TYPHIMURIUM, Strain/Indicator: TA1537, Metabolic Activation: NONE, Method: PREINCUBATION
Where [7] appears, read: Test System: AMES SALMONELLA TYPHIMURIUM, Strain/Indicator: TA1538, Metabolic Activation: NONE, Method: PREINCUBATION
[8] abbreviates: Test System: CHINESE HAMSTER V-79, Strain/Indicator: V-79/6-THIOGUANINE, Metabolic Activation: NONE.

Each structure is given as a SMILES string. The source made the active and inactive calls. No rule for the calls is given here.

For the compound `COc1ccc(C(=O)N2CCN(c3ccc4c(c3)CCC(=O)N4)CC2)cc1OC`, the mutagenic call is, setting by setting: (Test System: AMES SALMONELLA TYPHIMURIUM, Strain/Indicator: TA97, Metabolic Activation: NONE, Method: STANDARD PLATE) “inactive; negative”; (Test System: AMES SALMONELLA TYPHIMURIUM, Strain/Indicator: TA97, Metabolic Activation: S-9, Method: STANDARD PLATE) “inactive; negative”; under setting [1], “inactive; negative”; under setting [2], “inactive; negative”; (Test System: AMES SALMONELLA TYPHIMURIUM, Strain/Indicator: TA98, Metabolic Activation: RAT, LIVER, S-9, Method: PREINCUBATION) “inactive; negative”; (Test System: AMES SALMONELLA TYPHIMURIUM, Strain/Indicator: TA98, Metabolic Activation: S-9, Method: STANDARD PLATE) “inactive; negative”. Also, the mutagenic call is, setting by setting: under setting [3], “inactive; negative”; under setting [4], “inactive; negative”; (Test System: AMES SALMONELLA TYPHIMURIUM, Strain/Indicator: TA100, Metabolic Activation: RAT, LIVER, S-9, Method: PREINCUBATION) “inactive; negative”; (Test System: AMES SALMONELLA TYPHIMURIUM, Strain/Indicator: TA102, Metabolic Activation: NONE, Method: STANDARD PLATE) “inactive; negative”; (Test System: AMES SALMONELLA TYPHIMURIUM, Strain/Indicator: TA102, Metabolic Activation: S-9, Method: STANDARD PLATE) “inactive; negative”; under setting [5], “inactive; negative”. The mutagenic call by setting is: (Test System: AMES SALMONELLA TYPHIMURIUM, Strain/Indicator: TA1535, Metabolic Activation: RAT, LIVER, S-9, Method: PREINCUBATION) “inactive; negative”; under setting [6], “inactive; negative”; (Test System: AMES SALMONELLA TYPHIMURIUM, Strain/Indicator: TA1537, Metabolic Activation: RAT, LIVER, S-9, Method: PREINCUBATION) “inactive; negative”; under setting [7], “inactive; negative”; (Test System: AMES SALMONELLA TYPHIMURIUM, Strain/Indicator: TA1538, Metabolic Activation: RAT, LIVER, S-9, Method: PREINCUBATION) “inactive; negative”; (Test System: E. COLI, Strain/Indicator: WP2 UVRA, Metabolic Activation: NONE, Method: PREINCUBATION) “inactive; negative”. Also, the mutagenic call (Test System: E. COLI, Strain/Indicator: WP2 UVRA, Metabolic Activation: RAT, LIVER, S-9, Method: PREINCUBATION) was “inactive; negative”.

On to `COc1cc2c3c(c1OC)-c1cc4c(cc1C[C@@H]3N(C)CC2)OCO4`, for which the mutagenic call runs as follows: (Test System: AMES SALMONELLA TYPHIMURIUM, Strain/Indicator: TA98, Metabolic Activation: RAT, LIVER, S-9, PHENOBARBITAL AND BETA-NAPHTHOFLAVONE, Method: PREINCUBATION) “active; positive”; (Test System: AMES SALMONELLA TYPHIMURIUM, Strain/Indicator: TA100, Metabolic Activation: RAT, LIVER, S-9, PHENOBARBITAL AND BETA-NAPHTHOFLAVONE, Method: PREINCUBATION) “active; positive”.

As to `C=CCO`, the mutagenic call was “active; positive (structural changes and ploidy). toxicity at 0.008 mg/ml” (End Point: In vitro chromosomal aberrations, Test System: Chinese hamster lung (CHL/IU) cells, Metabolic Activation: Rat, Liver, S9, Phenobarbital and 5,6-benzoflavone); “active; positive” under setting [8]; “active; positive. reevaluation of results: positive” (Test System: MOUSE LYMPHOMA, Strain/Indicator: L5178Y (TK+/TK-), Metabolic Activation: NONE, Method: SUSPENSION/PLATE); “inactive; negative” (Test System: Mouse lymphoma, Strain/Indicator: L5178Y (tk+/tk-), Metabolic Activation: Rat, Liver, S-9, Aroclor 1254, Method: Suspension/plate).

On to `O=c1c2cc(O)ccc2oc2cc(O)cc(O)c12`, for which the mutagenic call is, setting by setting: (Test System: AMES SALMONELLA TYPHIMURIUM, Strain/Indicator: TA97, Metabolic Activation: RAT, LIVER, S-9, PHENOBARBITAL AND 5,6-BENZOFLAVONE, Method: PREINCUBATION) “active; positive”; (Test System: AMES SALMONELLA TYPHIMURIUM, Strain/Indicator: TA98, Metabolic Activation: RAT, LIVER, S-9, PHENOBARBITAL AND 5,6-BENZOFLAVONE, Method: PREINCUBATION) “inactive; negative”; (Test System: AMES SALMONELLA TYPHIMURIUM, Strain/Indicator: TA100, Metabolic Activation: RAT, LIVER, S-9, PHENOBARBITAL AND 5,6-BENZOFLAVONE, Method: PREINCUBATION) “active; positive”; (Test System: AMES SALMONELLA TYPHIMURIUM, Strain/Indicator: TA2637, Metabolic Activation: RAT, LIVER, S-9, PHENOBARBITAL AND 5,6-BENZOFLAVONE, Method: PREINCUBATION) “active; positive”.

Turning to `FC(F)(F)c1ccc(Cl)c(Cl)c1`, the mutagenic call is, setting by setting: (Test System: E. coli, Strain/Indicator: WP2uvrA/pKM101, Metabolic Activation: None, Method: Preincubation) “inactive; negative”; (Test System: E. coli, Strain/Indicator: WP2uvrA/pKM101, Metabolic Activation: Rat, Liver, S9, Sodium phenobarbital and 5,6-benzoflavone, Method: Preincubation) “inactive; negative”.

Consider `C1=CC2CCCCC2c2ccccc21` (stereo unspecified), for which the mutagenic call runs as follows: (Test System: AMES SALMONELLA TYPHIMURIUM, Strain/Indicator: TA98, Metabolic Activation: RAT, LIVER, S-9, SODIUM PHENOBARBITAL AND BETA-NAPHTHOFLAVONE, Method: STANDARD PLATE) “active; positive”; (Test System: AMES SALMONELLA TYPHIMURIUM, Strain/Indicator: TA100, Metabolic Activation: RAT, LIVER, S-9, SODIUM PHEOBARBITAL AND BETA-NAPHTHOFLAVONE, Method: STANDARD PLATE) “active; positive”.

On to `C[C@H]1C=C(C=O)C(C=O)=C[C@]2(O)CC(C)(C)C[C@H]12`, for which the mutagenic call was “active; positive” under setting [2]; “active; positive” under setting [4]; “inactive; negative” (Test System: AMES SALMONELLA TYPHIMURIUM, Strain/Indicator: TA2637, Metabolic Activation: NONE, Method: STANDARD PLATE).

Take `OC1=C2O[C@@H]2CC[C@H]1O`: the mutagenic call under setting [8] is “active; positive”.

Turning to `CCCCOC(N)=O`, the mutagenic call (Test System: E. COLI, Strain/Indicator: WP2 UVRA, Metabolic Activation: NONE, Method: FLUCTUATION TEST) is “inactive; negative”.

Turning to `CC(C)(c1ccccc1)c1ccc(O)cc1`, the mutagenic call runs as follows: under setting [1], “inactive; negative”; (Test System: AMES SALMONELLA TYPHIMURIUM, Strain/Indicator: TA98, Metabolic Activation: RAT LIVER S-9, PHENOBARBITAL AND BETA-NAPHTHOFLAVONE, Method: PREINCUBATION) “inactive; negative”; under setting [3], “inactive; negative”; (Test System: AMES SALMONELLA TYPHIMURIUM, Strain/Indicator: TA100, Metabolic Activation: RAT LIVER S-9, PHENOBARBITAL AND BETA-NAPHTHOFLAVONE, Method: PREINCUBATION) “inactive; negative”; under setting [5], “inactive; negative”; (Test System: AMES SALMONELLA TYPHIMURIUM, Strain/Indicator: TA1535, Metabolic Activation: RAT LIVER S-9, PHENOBARBITAL AND BETA-NAPHTHOFLAVONE, Method: PREINCUBATION) “inactive; negative”. Moreover, the mutagenic call reads like this: under setting [6], “inactive; negative”; (Test System: AMES SALMONELLA TYPHIMURIUM, Strain/Indicator: TA1537, Metabolic Activation: RAT LIVER S-9, PHENOBARBITAL AND BETA-NAPHTHOFLAVONE, Method: PREINCUBATION) “inactive; negative”; under setting [7], “inactive; negative”; (Test System: AMES SALMONELLA TYPHIMURIUM, Strain/Indicator: TA1538, Metabolic Activation: RAT LIVER S-9, PHENOBARBITAL AND BETA-NAPHTHOFLAVONE, Method: PREINCUBATION) “inactive; negative”; (Test System: E.COLI, Strain/Indicator: WP2UVRA, Metabolic Activation: NONE, Method: PREINCUBATION) “inactive; negative”; (Test System: E.COLI, Strain/Indicator: WP2UVRA, Metabolic Activation: RAT LIVER S-9, PHENOBARBITAL AND BETA-NAPHTHOFLAVONE, Method: PREINCUBATION) “inactive; negative”.

Take `CNC(=O)Oc1cccc2c1OC(C)(C)C2=O`: the mutagenic call (End Point: IN VIVO MICRONUCLEUS, Test System: BONE MARROW POLYCHROMATIC ERYTHROCYTES, Species: MOUSE, Strain/Sex: KM/MALE, FEMALE, Route: IP INJECTION) was “inactive; negative”.

These data come from PubChem BioAssay AID1259407 (Chemical Carcinogenesis Research Information System (CCRIS), 2018).
